Laboratory results as given in US9931335B2, “Desethylhydroxychloroquine for the treatment of diseases associated with inflammation” (The Board of Trustees of the Leland Stanford Junior …, priority 2013, dated 2018).

Tests used:
[1] = LC/MS tissue levels of HCQ and DHCQ in plasma, retina and synovium of dosed mice; format: in vivo, mouse; details: for accumulation in the retina: 100 mg/kg/day oral gavage, LC/MS
Description: The major risk to long term administration of hydroxychloroquine is retinal accumulation and subsequent ocular toxicity (Terahi et al, 2008. Semin Opthal. (3):201-208. PMID). We sought to evaluate the retinal deposition of HCQ and DHCQ. To do so, we performed mass spectrometric analysis of drug and metabolite content in retina, in operated side and non-operated side synovial tissue, and in plasma derived from mice treated with either HCQ or DHCQ. […] The indicated statistical comparisons between the levels measured in the indicated tissue from each group were compared by two-tailed T test (*P<0.05, **P<0.01, ***P<0.001).
Mice, dosing with HCQ and DHCQ, isolation of specific tissues, and mass spectrometry measurement of HCQ and DHCQ levels in tissue samples. C57BL6 (B6) mice (n=5 per group) were treated with HCQ (100 mg/kg/day) or DHCQ (100 mg/kg/day) by oral gavage for 3 months. At experimental termination (3 months) mice were sacrificed and eyes removed under dissecting microscope. Curved microdisecting scissors was used to cut along the cornea and sclera, remove and discard the lens and visceral leaving the neural retina with eye shell to be placed in PBS and homogenized followed by centrifugation. Synovium was microdissected from the operated knee or the contralateral non-operated knee, normalized by weight of tissue, and placed in HPLC grade water before being homogenized and centrifuged. Plasma was obtained by tail bleeding. Plasma and tissue samples were precipitated with acetonitrile and levels of HCQ, DHCQ, BDCQ were evaluated by liquid chromatography/mass spectrometry (LC/MS) at Climax Laboratories, Inc. (San Jose, Calif.). The LC/MS analysis was conducted by using Shimazu 10A HPLC system (Shimadzu Scientific Instruments, Inc., Pleasanton, Calif.) with ACE C18, 50×2.1 HPLC column and ABSciex API-4000 Mass Spectrometer (ABSciex Corp. Foster City, Calif.) with Electrospray Ionization (ESI) and negative Multiple Reaction Monitoring (MRM) Scan. A gradient elution was used in separating the test compound with a mobile phase A (0.1% Formic Acid in 5 mM of NH4AC) and B (0.1% Formic acid in acetonitrile).

retinal toxicity [2] = test: Estimated retinal toxicity of long-term DHCQ therapy in humans; format: in vivo, human
Description: The estimated rate of retinal toxicity for long-term treatment with DHCQ is less than 50% of the currently reported rate for HCQ when used at a similar effective cumulative dose and over a similar time period. More specifically, as compared to the rates of retinal toxicity described by Marmor et al. for treatment with HCQ (Ophthalmology. 2011 February; 118(2):415-22), given a similar level of therapeutic activity and time period of dosing for both HCQ and DHCQ, DHCQ is estimated to provide less than 50% of retinal toxicity as compared to that with HCQ dosing. Thus, in patient populations analogous to that described by the […] and Marmor et al (Ophthalmology. 2011 February; 118(2):415-22) where the retinal toxicity rate approach 1% after 5 years, DHCQ therapy is estimated to reduce the retinal toxicity to less that 0.5% of treated individuals. Further, given conventional assumptions that retinal screening is justified as rates of toxicity approach 1%, the reduced cumulative rates of retinal toxicity associated with DHCQ therapy will substantially reduce the need for retinal toxicity screening to a single screening at 5 and 10 years, or entirely negate the need for screening.

human OA = details: cited from earlier work
retinal toxicity [3] = details: cited from earlier work

| Compound | accumulation in the retina ([1]; 3 months) | level in surgical joint synovial tissue relative to retina ([1]; 100 mg/kg/day, 3 months) | level in retina relative to plasma ([1]; DHCQ in both HCQ and DHCQ dosed mice) | estimated retinal toxicity rate in treated individuals after 5 years (retinal toxicity [2]; population where HCQ rate approaches 1% after 5 years) | estimated rate of retinal toxicity, as share of the reported rate for HCQ (retinal toxicity [2]; similar effective cumulative dose and time period) | Kp at 3 months ([1]; C57BL6, mouse, retina/plasma, oral, HCQ in HCQ dosed mice, 100 mg/kg/day, 3 months, read-out: level in retina/level in plasma) | therapeutic benefit in erosive OA (human OA; case series) | disease-modifying or pain-reducing activity in non-erosive OA (human OA; in vivo) | prevalence of retinal toxicity (retinal toxicity [3]; conventional doses, 400 mg/day common) | retinal toxicity after 5-7 years of use (retinal toxicity [3]; in vivo) | risk of retinal toxicity after 7 years of usage or 1000 grams of total exposure (retinal toxicity [3]; in vivo) | risk of retinal toxicity after about 7 years of treatment (retinal toxicity [3]; in vivo) | incidence of retinal toxicity after 5 years (retinal toxicity [3]; treated humans, conventional doses) |
| --- | --- | --- | --- | --- | --- | --- | --- | --- | --- | --- | --- | --- | --- |
| CC(CCCNCCO)Nc1ccnc2cc(Cl)ccc12 (stereo not drawn) [DHCQ, desethylhydroxychloroquine] | only low-level accumulation in the retina | accumulated at higher levels in the surgical joint synovial tissue relative to the low levels measured in the retina | much lower levels in plasma as compared to the retina | < 0.5% | less than 50% |  |  |  |  |  |  |  |  |
| CCN(CCO)CCCC(C)Nc1ccnc2cc(Cl)ccc12 (stereo not drawn) [HCQ, hydroxychloroquine] | accumulated a high levels in the retina | accumulated at high levels in the retina relative to the low levels measured in the surgical joint synovial tissue |  |  |  | ~8.5 | trends towards therapeutic benefit | has not demonstrated disease-modifying or pain-reducing activity | 6.8 users per 1,000 | ~1% | 5 times higher | approximately 1% | approximately 1% |
